Counter-ions that a name gives are not always drawn.
What was measured:
[1] = test system: calcium canals regulated by the intracellular calcium depot; assay: Histamine-induced calcium stream in SK-N-SH cells, Phase 2 (lowering of intracellular calcium concentration); type: cell-based; settings: Homo sapiens, 10 μM histamine, Fura 2 AM, Phase 2: discharge of intraplasmatic calcium
SHK male mice = assay: Recognition of New Objects by Mice Under Scopolamine and MK-801; type: in vivo; settings: scopolamine 1 mg/kg and MK-801 0.2 mg/kg
Description: The experiments were carried out in a closed cross shaped labyrinth which consisted of 4 peripheral sections connected with the central chamber via a 7×7 cm hole. The labyrinth was made of black plastic and its sections were of 14×14×14 cm size. The top cover of the labyrinth was transparent.
A mouse was placed in the central section of the labyrinth and allowed to investigate the environment. A mouse was considered to have entered a section once all of its four paws were inside the chamber. A test was considered to be completed when the mouse had moved 12 times between the sections, having made a total of 13 visits. The floor of the labyrinth was cleaned after each animal.
With each mouse the test was carried out twice with 1 hour interval.
During the first test, each section of the labyrinth contained a circular plastic cup of 3 cm height and 7 cm diameter. During the second test the cover in each of the two opposing sections was replaced by a conical glass bulb of 7 cm height and 4 cm across the bottom. The time that the mice spent in each section of the labyrinth was registered and the index of new object recognition was calculated as the ratio of the time spent in the sections with the bulbs to the time spent in all sections of the labyrinth. If no preference is given to the sections with new objects the index is 0.5.
When new objects appear the mice spend more time in the section containing them that results in an increased recognition index. Scopolamine (1 mg/kg) and MK-801 (0.2 mg/kg) disturbed learning (memory) that leads to lowering of the recognition index.

BALB/c male mice [2] = assay: Passive Avoidance of Mice in a Shuttle Chamber, scopolamine or MK-801 (Example 8); type: in vivo; settings: scopolamine 0.3 mg/kg or MK-801 0.1 mg/kg
Description: Example 7. […] A shuttle chamber (Ugo Basile, Italy) consisted of two sections was used. […] The sections were connected via a hole which could be shut with a vertical door. The floor was made of transverse metal bars on which DC current impulses could be fed. Experiments were carried out on aged male mice of line BALB/c weighing 20-24 grams.
On the first day of the experiment 30 minutes before training the mice were injected intraintestinally with physiological solution of scopolamine (0.3 mg/kg) or scopolamine in combination with antagonists of 5-HT6 receptors 1.2.1(2)HCl, 1.2.1(4)HCl or 1.2.1(5)HCl. Each group consisted of at least 8 animals. The animals were placed in the light section, and the latent period of the first entry into the dark chamber was registered. Then the vertical door was closed and the animal was punished by 0.6 mA DC current for 3 seconds. After that the animal was carried back to its living cell. In 22-24 hours the same animal was placed in the light section of the shuttle chamber once again and the latent period before its entry into the dark section, the total time of its stay in the light section and the number of entries into the dark section were registered. Each observation lasted for 5 minutes.
The experiment was carried out in the same way as in example 7. On the first day 30 minutes before training the mice were injected intra-intestinally with a physiological solution of scopolamine (0.3 mg/kg) or MK-801(0.1 mg/kg).

BALB/c male mice [3] = assay: Passive Avoidance of Mice in a Shuttle Chamber, memory disturbed by scopolamine (Example 7); type: in vivo; settings: scopolamine 0.3 mg/kg, injected 30 minutes before training
Description: Example 7. […] A shuttle chamber (Ugo Basile, Italy) consisted of two sections was used. […] The sections were connected via a hole which could be shut with a vertical door. The floor was made of transverse metal bars on which DC current impulses could be fed. Experiments were carried out on aged male mice of line BALB/c weighing 20-24 grams. […] Each group consisted of at least 8 animals. The animals were placed in the light section, and the latent period of the first entry into the dark chamber was registered. Then the vertical door was closed and the animal was punished by 0.6 mA DC current for 3 seconds. After that the animal was carried back to its living cell. In 22-24 hours the same animal was placed in the light section of the shuttle chamber once again and the latent period before its entry into the dark section, the total time of its stay in the light section and the number of entries into the dark section were registered. Each observation lasted for 5 minutes. The experiment was carried out during the day time in an isolated laboratory using white noise at a level of about 70 decibel above the human hearing threshold. Scopolamine causes the disturbance of training (memory loss) which results in […]. The fact that 5-HT6 receptor antagonists can improve the learning ability that has been disturbed by scopolamine is regarded as evidence for their nootropic effect.

| Compound | EC50 [1] [µM] | other results |
| --- | --- | --- |
| Cc1ccc(CCn2c3c(c4cc(F)ccc42)CN(C)CC3)cn1 [1.2.1(11)HCl, 2-methyl-5-[2-(6-methylpyridin-3-yl)ethyl]-8-fluoro-2,3,4,5-tetrahydro-1H-pyrido[4,3-b]indole hydrochloride] | 0.73 |  |
| CN1CCc2c(c3cc(F)ccc3n2CCc2ccccn2)C1 [1.2.1(10)HCl, 2-methyl-5-[2-(pyridin-2-yl)ethyl]-8-fluoro-2,3,4,5-tetrahydro-1H-pyrido[4,3-b]indole hydrochloride] | 0.61 |  |
| Cc1ccc2c(c1)c1c(n2C#Cc2cccnc2)CCN(C)C1 [1.3.1(7), 2,8-dimethyl-5-(pyridin-3-ylethynyl)-2,3,4,5-tetrahydro-1H-pyrido[4,3-b]indole] | > 10 |  |
| CN1CCc2c(c3cccc(F)c3n2CCc2ccccc2)C1 [1.2.2(1)HCl] | 0.25 |  |
| CN1CCc2c(c3cc(F)ccc3n2CCc2ccncc2)C1 [1.2.1(8)HCl, 2-methyl-5-[2-(pyridin-4-yl)ethyl]-8-fluoro-2,3,4,5-tetrahydro-1H-pyrido[4,3-b]indole hydrochloride] | 0.47 |  |
| CC12CC3CC(C)(C1)CC(N)(C3)C2 [memantine] |  | nootropic action (new object recognition, FIG. 13-14) (SHK male mice): nootropic action |
| O=S(=O)(c1ccccc1)c1cnc2c(N3CCNCC3)cccc2c1 [SB-742457] |  | nootropic action (passive avoidance, FIGS. 5-10) (BALB/c male mice [2]): inactive; nootropic action (new object recognition, FIG. 13-14) (SHK male mice): nootropic action |
| Cc1ccc2c(c1)c1c(n2C#Cc2ccccc2)CCN(C)C1 [1.3.1(5), 2,8-dimethyl-5-phenylethynyl-2,3,4,5-tetrahydro-1H-pyrido[4,3-b]indole] | > 10 |  |
| CN1CCc2c(c3cc(F)ccc3n2CCc2ccccc2)C1 [1.2.1(7)HCl, 2-methyl-5-(2-phenylethyl)-8 fluoro-2,3,4,5-tetrahydro-1H-pyrido[4,3-b]indole hydrochloride] | 0.13 |  |
| Cc1ccc2c(c1)c1c(n2CCc2ccncc2)CCN(C)C1.Cl [1.2.1(2)HCl, 2,8-dimethyl-5-[2-(pyridin-4-yl)ethyl]-2,3,4,5-tetrahydro-1H-pyrido[4,3-b]indole hydrochloride] | 3.98 | nootropic action (passive avoidance, FIGS. 2-4) (BALB/c male mice [3]): exhibit a nootropic action which is the most prominent |
| Cc1ccc2c(c1)c1c(n2CCc2ccccn2)CCN(C)C1.Cl [1.2.1(4)HCl, 2,8-dimethyl-5-[2-(pyridin-2-yl)ethyl]-2,3,4,5-tetrahydro-1H-pyrido[4,3-b]indole hydrochloride] | 10 | nootropic action (passive avoidance, FIGS. 2-4) (BALB/c male mice [3]): exhibit a nootropic action which is the most prominent |
| CN1CCc2c(c3cc(F)ccc3n2C#Cc2cccnc2)C1 [1.3.1(3), 2-methyl-5-(pyridin-3-ylethynyl)-8-fluoro-2,3,4,5-tetrahydro-1H-pyrido[4,3-b]indole] | > 10 |  |
| Cc1ccc2c(c1)c1c(n2CCc2cnccn2)CCN(C)C1 [1.2.1(6), 2,8-dimethyl-5-[2-(pyrazin-2-yl)ethyl]-2,3,4,5-tetrahydro-1H-pyrido[4,3-b]indole] | 7.94 |  |

Now from value to compound, other results behind:

| EC50 [1] [µM] | Compound | other results |
| --- | --- | --- |
| 2.13 | CN1CCc2c(c3ccccc3n2/C=C/c2ccccc2)C1 [1.1(2), trans-2-methyl-5-(2-phenylethenyl)-2,3,4,5-tetrahydro-1H-pyrido[4,3-b]indole] |  |
| 0.19 | CN1CCc2c(c3cc(F)ccc3n2/C=C\c2cccc(F)c2)C1 [1.1.1(6), cis-2-methyl-5-[2-(3-fluorophenyl)ethenyl]-8-fluoro-2,3,4,5-tetrahydro-1H-pyrido[4,3-b]indole] |  |
| > 10 | CN1CCc2c(c3ccccc3n2/C=C\c2cccnc2)C1 [1.1(4), cis-2-methyl-5-[2-(pyridin-3-yl)ethenyl]-2,3,4,5-tetrahydro-1H-pyrido[4,3-b]indole] |  |
| 0.154 | Cc1ccc2c(c1)c1c(n2/C=C\c2ccccc2)CCN(C)C1 [1.1.1(3), cis-2,8-dimethyl-5-(2-phenylethenyl)-2,3,4,5-tetrahydro-1H-pyrido[4,3-b]indole] |  |
| 0.297 | CN1CCc2c(c3cc(F)ccc3n2CCc2cccnc2)C1 [1.2.1(9)HCl, 2-methyl-5-[2-(pyridin-3-yl)ethyl]-8-fluoro-2,3,4,5-tetrahydro-1H-pyrido[4,3-b]indole hydrochloride] |  |
| 0.18 | CN1CCc2c(c3ccccc3n2/C=C\c2ccccc2)C1 [1.1(1), cis-2-methyl-5-(2-phenylethenyl)-2,3,4,5-tetrahydro-1H-pyrido[4,3-b]indole] |  |
| > 10 | CN1CCc2c(c3ccccc3n2/C=C/c2ccncc2)C1 [1.1(3), trans-2-methyl-5-[2-(pyridin-4-yl)ethenyl]-2,3,4,5-tetrahydro-1H-pyrido[4,3-b]indole] |  |
| > 10 | CN1CCc2c(c3cc(F)ccc3n2/C=C\c2cccnc2)C1 [1.1.1(2), cis-2-methyl-5-[2-(pyridin-3-yl)ethenyl]-8-fluoro-2,3,4,5-tetrahydro-1H-pyrido[4,3-b]indole] |  |
| 0.5 | CN1CCc2c(c3ccccc3n2CCc2ccncc2)C1 [1.2(2)HCl, 2-methyl-5-[2-(pyridin-4-yl)ethyl]-2,3,4,5-tetrahydro-1H-pyrido[4,3-b]indole hydrochloride] |  |
| 0.93 | CN1CCc2c(c3ccccc3n2CCc2ccccn2)C1 [1.2(4)HCl, 2-methyl-5-[2-(pyridin-2-yl)ethyl]-2,3,4,5-tetrahydro-1H-pyrido[4,3-b]indole hydrochloride] |  |
| 0.412 | CN1CCc2c(c3ccccc3n2CCc2cccnc2)C1 [1.2(3)HCl, 2-methyl-5-[2-(pyridin-3-yl)ethyl]-2,3,4,5-tetrahydro-1H-pyrido[4,3-b]indole hydrochloride] |  |
| 10.1 | CN1CCc2c(c3ccccc3n2C#Cc2ccccc2)C1 [1.3(1), 2-methyl-5-phenylethynyl-2,3,4,5-tetrahydro-1H-pyrido[4,3-b]indole] |  |
| > 10 | CN1CCc2c(c3ccccc3n2/C=C/c2ccccn2)C1 [1.1(5), trans-2-methyl-5-[2-(pyridin-2-yl)ethenyl]-2,3,4,5-tetrahydro-1H-pyrido[4,3-b]indole] |  |
| 0.579 | Cc1ccc2c(c1)c1c(n2CCc2cccnc2)CCN(C)C1 [1.2.1(3)HCl, 2,8-dimethyl-5-[2-(pyridin-3-yl)ethyl]-2,3,4,5-tetrahydro-1H-pyrido[4,3-b]indole hydrochloride] |  |
| > 10 | CN1CCc2c(c3ccccc3n2C#Cc2cccnc2)C1 [1.3(3), 2-methyl-5-(pyridin-3-ylethynyl)-2,3,4,5-tetrahydro-1H-pyrido[4,3-b]indole] |  |
| 0.15 | CN1CCc2c(c3cc(F)ccc3n2/C=C\c2ccccc2)C1 [1.1.1(1), cis-2-methyl-5-(2-phenylethenyl)-8-fluoro-2,3,4,5-tetrahydro-1H-pyrido[4,3-b]indole] |  |

Source: US20190233409A1, “SUBSTITUTED 2,3,4,5-TETRAHYDRO-1H-PYRIDO[4,3-B]INDOLES, METHODS FOR USE THEREOF” (priority 2017, published 2019)
